Reference: patent publication US12502369B2, “Methods of cancer treatment” (K-GEN, INC., priority 2015, dated 2025)

What was measured:
phospho-PKC (pan) = experiment: Western blot of phospho-PKC (pan) in A549 cells; assay type: cell-based
Procedure: Cancer cells (2-8 million cells) were seeded in 10 cm dishes and grown overnight. For A549 lung cancer cell line, about 3 million cells were seeded. Cells were then treated with different drugs at indicated concentrations (see Table 8) for a period of time up to 48 hours. Cells were lysed in 0.3-0.5 mL of RIPA buffer (Sigma) supplemented with protease inhibitors (Roche) and phosphatase inhibitors (Sigma). Lysates were assayed for protein concentration using BCA kit (Pierce). Normalized amount of lysates (20-30 μg protein/lane) were run on 4-12% NuPage gel (Life Technologies) and the proteins were transferred to the PVDF or nitrocellulose membrane using iBlot® Transfer Stack (Life Technologies). The membranes were probed with primary antibodies shown in Table 8 at 4° C. overnight after blocking with 1×TBST containing 5% non-fat milk. Antibodies from other vendors could also be used in Western blot analysis. After washing 5 times with 1×TBS containing 0.1% Tween20, the membranes were probed with 2nd antibodies Anti-mouse IgG Dylight 800 conjugate or Anti-rabbit IgG DyLight 680 conjugate (1:10000; Cell signaling or similar IR 2nd antibodies from different vendors) at room temperature for one hour. After washing 5 times, the membranes were scanned using Odyssey® Imaging System (Licor Biosciences).

[1] = tested on: Cancer cell lines (161 different lines); experiment: Proliferation assay, 161 cancer cell lines, 72 hours; assay type: cell-based
Procedure: Cells were treated for 72 hours instead of 96 hours. Thus, cell numbers from individual cell line were optimized so that cells were ˜70-80% confluent in 72 hours when treated with vehicle only. […] A number of other cancer cell lines from bladder, ovarian, myeloma, prostrate, and renal cancers are also sensitive to K-101A. Most cell lines from liver and lung (SCLC) are resistant to K101A.

[2] = tested on: PKCμ and PKCδ in Namalwa, Mino, Raji, Daudi; experiment: Activation of PKC isoforms in four lymphoma cell lines, Western blot; assay type: cell-based
Procedure: Western blot analysis was performed as described in Example 2 and 4.

Wnt signaling pathway = experiment: TOPFlash / TK-RL Dual Luciferase assay (Wnt signaling), A549; assay type: cell-based; details: 24 hours, K101A 1, 3, 10 μM, K102 0.03, 0.1, 0.3 μM
Procedure: A549 cells (20K cells/well) were seeded in 96-well plates on Day 1. Cells were transfected with a mixture of TOPFlash firefly luciferase reporter plasmid M50 (300 ng/well) (Adagene) and an internal control plasmid pRL-TK-Renilla luciferase (20 ng/well) (Promega) using FuGene transfection reagent (plasmid:FuGene=1:4) (Promega) on Day 2. […] Luciferase activities in treated cells were measured using Dual-Glo Luciferase Kit according to manufacturer's instructions (Promega) on Envision (Perkin Elmer). TOPFlash has been used as a reporter for activation of Wnt signaling pathway. […] It has been reported that PKC activators, via suppression of K-Ras stemness pathway, can block canonical Wnt signaling in pancreatic cancer cells. The data here indicate that PKC activator can also block canonical Wnt signaling in lung cancer cells.

[3] = literature reports; cited from earlier work
[4] = tested on: K-Ras mutant pancreatic, lung, and colon cancer cell lines, leukemia cell lines; experiment: Proliferation assays, panel of cancer cell lines (summary statements); assay type: cell-based
Procedure: Briefly, cells at a density of 1,000-10,000 cells/well were seeded in 96-well plates and incubated at 37′C for 24 hours. A series of 9 different concentrations of compound stocks (500×) were created by 3-fold serial dilution in DMSO. These compounds were further diluted in culture media and then added to cells so that the final DMSO concentration was 0.2%. After 96 hours of incubation, 50 μL of CellTiter Glo reagent (Promega) was added to each well and luminescence was measured after 10 minutes using EnVision (PerkinElmer). […] The dose range for most compounds was 4.6 nM-30 μM. The dose ranges for some compounds were adjusted downward to 0.46 nM-3 μM or 0.08 nM-0.5 μM or 0.03 nM-0.2 μM. Luminescence from cells treated with […] alone was set as Max and % of inhibition was calculated as follows: Inhibition %=(Max-Sample value)/Max*100. Data was analyzed using XL-fit software (ID Business Solutions Ltd.) and EC50, relative EC50, and % of top inhibition were calculated. The results are shown in Tables 3-6 for pancreatic cancer, lung cancer, colon/gastric cancer, and leukemia cell lines.

| Compound | phospho-PKC (pan) level (phospho-PKC (pan); 0.5 uM of K-101A) | phospho-PKC (pan) levels (phospho-PKC (pan); 48 hours, K-103, K-102 at 0.5 μM, K-101A at 2.5 μM) | sensitivity of most cell lines from liver and lung (SCLC) [1] | cell lines showing top inhibition above 30% ([1]; 161 cell lines) | cell lines showing top inhibition above 50% ([1]; 161 cell lines) | lines having a top inhibition above 30% ([1]; breast cancer cell lines) | lines having a top inhibition above 30% ([1]; leukemia cell lines) | phosphorylation of PKCμ at Ser744/748 and Ser916 and PKCδ at Thr505 [2] | proportion of phosphorylated PKCμ at Ser916/total PKCμ [2] | maximal inhibition of TOPFlash activity (Wnt signaling pathway) | tumor promotion [3] | potency in proliferation inhibition relative to prostratin [4] |
| --- | --- | --- | --- | --- | --- | --- | --- | --- | --- | --- | --- | --- |
| CC(=O)O[C@@]12C[C@@H](C)[C@]3(O)C4C=C(C)C(=O)[C@@]4(O)CC(CO)=C[C@H]3[C@@H]1C2(C)C (stereo partly drawn) [Compound K-101A, Prostratin] | without affecting | reduction | resistant | Roughly 50 % of the cell lines | ~25 % of the cell lines | 9 out of 18 | 10 out of 11 | induced in all cell lines | much greater in two sensitive cell lines | about 60% | non-tumor-promoting |  |
| C/C=C(/C)C(=O)O[C@H]1C(C)=C[C@]23C(=O)[C@@H](C=C(CO)[C@@H](O)[C@]12O)[C@H]1[C@@H](C[C@H]3C)C1(C)C [Compound K-102, Ingenol-3-angelate, reference compound] |  |  |  |  |  |  |  |  |  |  |  | more potent in proliferation inhibition |
